{"source": "patent US4420639A", "about": "“Aromatic compounds” (Beecham Group Limited, priority 1973, dated 1983)", "key": {"[1]": {"tested_on": "Carrageenin Induced Oedema", "assay": "Carrageenin Induced Oedema in Rats", "format": "in vivo, rat", "conditions": "5, 10, 35 and 70 mg/kg p.o.", "source_text": "a. Carrageenin Induced Oedema in Rats."}, "[2]": {"tested_on": "cultured mouse peritoneal macrophages", "assay": "Macrophage Plasmongen Activator Release test", "format": "cell-based", "conditions": "1 mg/ml"}, "pyloric ligated rat": {"tested_on": "pyloric ligated rat", "assay": "Gastric Damage in Pyloric Ligated Rats", "format": "in vivo", "conditions": "up to 200 mg/kg intra-duadenally", "source_text": "l. Gastric Damage in Pyloric Ligated Rats."}, "[3]": {"tested_on": "uterus / endometrium (Clauberg test)", "assay": "Gestagenic Activity in Rabbits (Clauberg test)", "format": "in vivo, rabbit", "conditions": "200 mg/kg p.o. for 4 days", "source_text": "k. Gestagenic Activity in Rabbits."}, "[4]": {"tested_on": "ovariectomised rats, uterine weight", "assay": "Oestrogenic Test in Rats (uterine weight)", "format": "in vivo, rat", "conditions": "200 mg/kg p.o. and 600 mg/kg p.o. for 4 days", "source_text": "i. Oestrogenic Test in Rats."}, "Adjuvant arthritis": {"tested_on": "Adjuvant arthritis", "assay": "Adjurant Arthritis in Rats", "format": "in vivo, rat", "conditions": "daily administration of 60 mg/kg p.o.", "experimental": "d. Adjurant Arthritis in Rats.\nAdjuvant arthritis is reduced in rats by the daily administration of doses of 60 mg/kg p.o."}, "[5]": {"tested_on": "stomach / gastro-intestinal tract", "assay": "Gastro-intestinal irritancy at or near the therapeutic dose (general statement)", "format": "in vivo"}, "[6]": {"tested_on": "pyresis induced by Shigella endotoxin", "assay": "Anti-pyretic Effect in Rabbits", "format": "in vivo, rabbit", "conditions": "doses down to 100 mg/kg p.o.; intravenous Shigella endotoxin", "source_text": "g. Anti-pyretic Effect in Rabbits."}, "[7]": {"tested_on": "Cotton Pellet Induced Granuloma", "assay": "Cotton Pellet Induced Granuloma in Rats", "format": "in vivo, rat", "conditions": "50 mg/kg p.o. dosed from day 0 to 5 days", "experimental": "c. Cotton Pellet Induced Granuloma in Rats. Consistent activity (reducing induced granuloma by more than 30%) has been observed at 50 mg/kg p.o. dosed from day 0 to 5 days."}, "Adrenal/Pitutary Axis": {"tested_on": "Adrenal/Pitutary Axis", "assay": "Interactions with the Adrenal/Pitutary Axis", "format": "in vivo", "conditions": "five days at 140 mg/kg p.o./day; response to ACTH or ether stress", "source_text": "h. Interactions with the Adrenal/Pitutary Axis."}, "[8]": {"tested_on": "gastric erosions or ulceration", "assay": "Ulcerogenic Activity in Rats", "format": "in vivo, rat", "conditions": "250 mg/kg p.o. or 500 mg/kg p.o.", "source_text": "m. Ulcerogenic Activity in Rats."}, "oestrogenicity": {"tested_on": "oestrogenicity", "assay": "Oestrogenic effects (general statement)", "format": "in vivo", "conditions": "at the therapeutic dose"}}, "data": [{"smiles": "COc1ccc2cc(CCC(C)=O)ccc2c1", "note": "[4-(6'-methoxy-2'-naphthyl)butan-2-one]", "values": [{"measurement": "reduction in induced oedema volume", "setting": "[1]", "value": "significant reduction in induced oedema volume"}, {"measurement": "inhibition of the release of plasmogen activator", "setting": "[2]", "value": "slight inhibition"}, {"measurement": "overt gastric damage", "setting": "pyloric ligated rat", "value": "nor did overt gastric damage result"}, {"measurement": "systemically mediated effect on the volume of gastric secretion", "setting": "pyloric ligated rat", "value": "have not been found to have a systemically mediated effect on the volume of gastric secretion"}, {"measurement": "uterine hypertrophy or progestational changes in the endometrium", "setting": "[3]", "value": "did not result in uterine hypertrophy or progestational changes in the endometrium"}, {"measurement": "increase in uterine weight", "setting": "[4]", "value": "did not result in any increase in uterine weight"}, {"measurement": "reduction of adjuvant arthritis", "setting": "Adjuvant arthritis", "value": "reduced"}, {"measurement": "irritation of the stomach / gastric-irritant effects", "setting": "[5]", "value": "not causing either oestrogenic effects or pronounced gastric-irritant effects"}, {"measurement": "reduction of pyresis", "setting": "[6]", "value": "reduced pyresis"}, {"measurement": "changes in body weight or in the weight of the spleen, thymus, kidney, liver or adrenal glands", "setting": "[7]", "value": "not accompanied by marked changes"}, {"measurement": "reduction of induced granuloma", "setting": "[7]", "value": "more than 30%"}, {"measurement": "interference with release of corticosteroids from the adrenal gland", "setting": "Adrenal/Pitutary Axis", "value": "does not interfere with release of corticosteroids"}, {"measurement": "gastric erosions at longer contact times", "setting": "[8]; longer contact times than 4 hours", "value": "did lead in some cases to some degree of erosions"}, {"measurement": "gastric erosions or ulceration", "setting": "[8]; starved 18 hours, examined 1 or 4 hours after dosing", "value": "did not give rise to gastric erosions or ulceration"}, {"measurement": "oestrogenic effects", "setting": "oestrogenicity", "value": "not causing either oestrogenic effects"}]}]}
